Here are results for four molecules from patent publication US9763940B2, “Therapeutic use of P75 receptor antagonists” (Sanofi, priority 2011, dated 2017).

Where a name gives a salt, the structure may show the parent alone.

Experiment [1] concerns SHR male rats, characterized by overactive bladder (OAB). As to the kind of experiment: Cystometry after acute oral treatment in SHR rats with spontaneous overactive bladder. Type of experiment: in vivo, rat. The following applies: % of control period, mean±SEM. As for the experimental part:
(§1) Male adult SHR/N Ico rats (250 g; Charles River Italy), were housed 7 days prior to the surgery with free access to standard chow and water. Animals were used in accordance with sanofi international ethical code and the international principles governing the care and treatment of laboratory animals, (E.E.E Council Directive 86/609, DJL358, 1 Cec. 12, 1987) in a fully accredited AAALAC facility.
(§2) A lower midline abdominal incision was performed under general anesthesia with 2-3% isoflurane using aseptic techniques. Their body temperature was maintained at 37° C. using a homeothermic blanket. Polyethylene tubing was inserted into the dome of the bladder and secured in place with a 6-0 nylon purse-string suture. The distal end of the tubing was sealed, tunneled subcutaneously, and externalized at the back of the neck, out of the animal's reach. At the moment of the surgery animals were 16 weeks old.
(§3) After one week from surgery, animals were placed in a Small Animal Cystometry Lab Station (MED Associates, St. Albans, Vt.) for urodynamic measurements. Prior to the start of recording the bladder was emptied and the catheter was connected via a T-tube to a pressure transducer and microinjection pump. Isotonic saline (0.9% NaCl at room temperature) was infused into the bladder at a rate of 10 ml per hour. An analytical balance beneath the wire-bottomed animal cage measured the amount of urine voided during continuous cystometry. A single cystometrogram is defined as the simultaneous recording of intravesical pressure, infused volume and voided volume during a single filling-voiding cycle. At least 4 reproducible micturition cycles are recorded (basal period) after the initial stabilization period of 25 to 30 minutes, using MED-CMG software (Catamount Research &Development Company).
Then, vehicle or compounds were administered orally at 2 ml/kg.
Due to kinetic profile of compounds, urodynamic assessment was performed 1 h after treatment and at least 4 reproducible micturition cycles were recorded.
The cystometrograms are analyzed using a specific software, SOF-552 cystometry data analysis.
The following endpoints have been considered (FIG. 1): • 1. Intercontraction intervals (sec) (ICI)—Time between micturition events (micturition interval) • 2. Threshold pressure (mmHg) (TP)—Bladder pressure immediately prior to micturition • 3. Maximum bladder pressure (mmHg) (Max P)—Highest bladder pressure associated with voiding • 4. Minimum bladder pressure (mmHg) (Min P)—Lowest bladder pressure during bladder filling • 5. Infused volume (μl) (Inf. Vol)—Volume of saline infused during the micturition cycle • 6. Average bladder pressure (mmHg) (Aver P)—Average bladder pressure during bladder filling Exclusion Criteria
In order to limit the impact of inter-group or intra-group variability, all data were expressed as % of control period (100%), as mean±standard error of mean (SEM) and were averaged per group of treatment. A one way analysis of variance (ANOVA), followed by Newman-Keuls' test or Dunnett's test, were used. A probability value of p<0.05 was regarded as significant.
Effects of an Acute Treatment with p75 Antagonists on Urodynamic Parameters in SHR Rats Characterized by Spontaneous Overactive Bladder (OAB)
• Vehicle: 0.5% Polysorbate 80 (PS80) solution in buffered methylcellulose (MC 0.6%) • Compound n°1 at 10 mg/kg: suspension (0.5% PS80 plus MC 0.6%) • Compound n°2 at 3, 10, 30 mg/kg: suspension (0.5% PS80 plus MC 0.6%) • Compound n°3 at 10 mg/kg: suspension (0.5% PS80 plus MC 0.6%) • Compound n°4 at 10 mg/kg: suspension (0.5% PS80 plus MC 0.6%) Experimental Design:
In order to investigate the role of compounds according to the invention in the micturition pathway, 5 groups of 4-12 rats are used: • Group 1, Vehicle per os (po) (n=10) • Group 2, Compound n°1 at 10 mg/kg po (n=12) • Group 3, Compound n°2 at 10 mg/kg po (n=6) • Group 4, Compound n°3 at 10 mg/kg po (n=4) • Group 5, Compound n°4 at 10 mg/kg po (n=5) […]

Experiment [2] shares this test system. As to the kind of experiment: Cystometry after one-week chronic treatment in SHR rats with spontaneous overactive bladder. Type of experiment: in vivo, rat. The conditions noted are these: 10 mg/kg po for 7 days. The procedure:
as §1, §2, §3
The cystometrograms are analyzed using a specific software, SOF-552 cystometry data analysis. […]
In order to limit the impact of inter-group or intra-group variability, all data were expressed as % of control period (100%), as mean±standard error of mean (SEM) and were averaged per group of treatment. […]

Where [3] appears, read: 10 mg/kg po, 1 h after treatment, FIG. 2.
Setting [4] is: 10 mg/kg po, 1 h after treatment, FIG. 3.

Consider `O=C(CN1CC2CCC(C1)N2c1cccnc1)N1CCc2nn(-c3ccccc3)cc2C1` [compound n°4, 1-(2-phenyl-2,4,6,7-tetrahydropyrazolo[4,3-c]pyridin-5-yl)-2-(8-pyridin-3-yl-3,8-diazabicyclo[3.2.1]oct-3-yl)ethanone], for which the “Intercontraction intervals (ICI)” value in experiment [1] (setting [3]) was determined as 186.3±26.9%. The “Infused volume (bladder capacity)” value in experiment [1] (setting [4]) is 186.2±26.9%.
For `C[C@@H]1CN(c2ccc(C(=O)O)cn2)C[C@H](C)N1CC(=O)N1CC=C(c2cccc3ccoc23)CC1` [compound n°3, 6-{(3S,5R)-4-[2-(4-benzofuran-7-yl-3,6-dihydro-2H-pyridin-1-yl)-2-oxoethyl]-3,5-dimethylpiperazin-1-yl}nicotinic acid], in that order: 167.2±20.3% and 167.14±20%.
For the molecule `C[C@@H]1CN(c2ccc(C(=O)O)cn2)C[C@H](C)N1CC(=O)N1CCc2nn(-c3ccccc3)cc2C1` [compound n°2, 6-{(3S,5R)-3,5-Dimethyl-4-[2-oxo-2-(2-phenyl-2,4,6,7-tetrahydropyrazolo[4,3-c]pyridin-5-yl)ethyl]piperazin-1-yl}nicotinic acid hydrochloride], the “Intercontraction intervals (ICI)” value in experiment [1] (setting [3]) amounted to 199.7±28.5%; in experiment [1] (dose response, 3 mg/kg po, FIG. 4) it was 160.9±21.8%; in experiment [1] (dose response, 10 mg/kg po, FIG. 4), 199.7±28.5%; in experiment [1] (dose response, 30 mg/kg po, FIG. 4), 210.5±24.7%; in experiment [2] (cystometry 24 h after last treatment, % of control values, mean±SEM, FIG. 6) it was 173.8±21.1%. Further, the “Infused volume (bladder capacity)” value in experiment [1] (setting [4]) worked out at 198.9±28.3%; in experiment [1] (dose response, 3 mg/kg po, FIG. 5), 160.8±21.7%; in experiment [1] (dose response, 10 mg/kg po, FIG. 5) it was 198.9±28.3%; in experiment [1] (dose response, 30 mg/kg po, FIG. 5), 209.9±24.5%; in experiment [2] (cystometry 24 h after last treatment, % of control values, mean±SEM, FIG. 7), 173.7±21.1%. For the same molecule, the “Effect on micturition pressure parameters” value in experiment [2] (SHR rats) is “no effect”.
For `O=C(CN1CC2CCC(C1)N2c1ncc(F)cn1)N1CC=C(c2ccc(Cl)c(C(F)(F)F)c2)CC1` [compound n°1, 1-[4-(4-chloro-3-trifluoromethyl-phenyl)-3,6-dihydro-2H-pyridin-1-yl]-2-[8-(5-fluoro-pyrimidin-2-yl)-3,8-diaza-bicyclo[3.2.1]oct-3-yl]-ethanone], in experiment [1] (setting [3]), the “Intercontraction intervals (ICI)” value is given as 195.5±15.4%. The “Infused volume (bladder capacity)” value in experiment [1] (setting [4]) worked out at 194.9±15.3%.
